Legend:
Format in all cases: biochemical
Hck-1 = molecular target: T1, Hck-1 (Homo sapiens, UniProt P08631); test: Kinase inhibition assay (33P transfer), Hck; conditions: Table 6, Hck-1 kinase inhibition class
T1 construct: Kinases are expressed as either kinase domains or full length constructs; made in house

ErbB2 = molecular target: T2, ErbB2 (Homo sapiens, UniProt P04626); test: Kinase inhibition assay (33P transfer), ErbB2; conditions: read-out: ErbB2-2
T2 construct: Kinases are expressed as either kinase domains or full length constructs; made in house
Method in brief: (§1)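 Steps: coat wells with poly(Glu,Tyr) 4:1 or poly(Arg,Ser) 3:1; add purified kinase, [33P]ATP and inhibitor; incubate; wash with 0.5% phosphoric acid; add liquid scintillant; count. IC50 corresponds to half-maximal reduction of bound 33P.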

Ret-1 = molecular target: T3, Ret-1 (Homo sapiens, UniProt P07949); test: Kinase inhibition assay (33P transfer), Ret; conditions: Table 6, Ret-1 kinase inhibition class
T3 construct: Kinases are expressed as either kinase domains or full length constructs; made in house

Lck = molecular target: T4, Lck (Homo sapiens, UniProt P06239); test: Kinase inhibition assay (33P transfer), Lck; conditions: read-out: Lck-1
T4 construct: Kinases are expressed as either kinase domains or full length constructs; made in house
Method in brief: (§2)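 33P-ATP transfer to coated synthetic polymer substrates; acid wash (0.5% H3PO4), scintillant, liquid scintillation count. Enzymes: His- or GST-fusion kinases from E. coli or High Five insect cells.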

c-Met = molecular target: T5, c-Met (Homo sapiens, UniProt P08581); test: Kinase inhibition assay (33P transfer), c-Met; conditions: Table 2, kinase inhibition class; read-out: Met-1
T5 construct: Kinases are expressed as either kinase domains or full length constructs; made in house
Method in brief: as §1

Itk = molecular target: T6, Itk (Homo sapiens, UniProt Q08881); test: Kinase inhibition assay (33P transfer), Itk; conditions: read-out: Itk-1
T6 construct: Kinases are expressed as either kinase domains or full length constructs; made in house
T6 sequence (Q08881 1-620): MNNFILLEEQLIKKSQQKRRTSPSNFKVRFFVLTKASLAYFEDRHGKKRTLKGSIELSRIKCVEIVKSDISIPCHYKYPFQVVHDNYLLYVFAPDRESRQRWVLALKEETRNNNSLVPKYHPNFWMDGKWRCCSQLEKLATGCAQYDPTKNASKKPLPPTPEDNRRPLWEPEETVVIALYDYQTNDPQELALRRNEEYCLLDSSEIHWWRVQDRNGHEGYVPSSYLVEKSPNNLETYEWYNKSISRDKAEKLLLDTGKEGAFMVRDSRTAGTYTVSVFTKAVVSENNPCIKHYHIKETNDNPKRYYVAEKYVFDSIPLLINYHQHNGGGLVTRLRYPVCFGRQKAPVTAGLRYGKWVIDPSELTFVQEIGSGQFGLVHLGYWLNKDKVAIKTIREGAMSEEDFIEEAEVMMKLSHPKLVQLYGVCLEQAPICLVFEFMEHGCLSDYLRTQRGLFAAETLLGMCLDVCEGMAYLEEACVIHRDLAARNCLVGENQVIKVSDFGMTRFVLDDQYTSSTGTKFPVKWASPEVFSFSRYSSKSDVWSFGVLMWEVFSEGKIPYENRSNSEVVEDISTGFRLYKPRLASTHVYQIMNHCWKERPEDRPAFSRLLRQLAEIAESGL
Method in brief: as §1

EGFR = molecular target: T7, EGFR (Homo sapiens, UniProt P00533); test: Kinase inhibition assay (33P transfer), EGFR; conditions: Table 2, kinase inhibition class; read-out: EGFR-1
T7 construct: Kinases are expressed as either kinase domains or full length constructs; made in house
T7 sequence (P00533 25-1210, species assumed): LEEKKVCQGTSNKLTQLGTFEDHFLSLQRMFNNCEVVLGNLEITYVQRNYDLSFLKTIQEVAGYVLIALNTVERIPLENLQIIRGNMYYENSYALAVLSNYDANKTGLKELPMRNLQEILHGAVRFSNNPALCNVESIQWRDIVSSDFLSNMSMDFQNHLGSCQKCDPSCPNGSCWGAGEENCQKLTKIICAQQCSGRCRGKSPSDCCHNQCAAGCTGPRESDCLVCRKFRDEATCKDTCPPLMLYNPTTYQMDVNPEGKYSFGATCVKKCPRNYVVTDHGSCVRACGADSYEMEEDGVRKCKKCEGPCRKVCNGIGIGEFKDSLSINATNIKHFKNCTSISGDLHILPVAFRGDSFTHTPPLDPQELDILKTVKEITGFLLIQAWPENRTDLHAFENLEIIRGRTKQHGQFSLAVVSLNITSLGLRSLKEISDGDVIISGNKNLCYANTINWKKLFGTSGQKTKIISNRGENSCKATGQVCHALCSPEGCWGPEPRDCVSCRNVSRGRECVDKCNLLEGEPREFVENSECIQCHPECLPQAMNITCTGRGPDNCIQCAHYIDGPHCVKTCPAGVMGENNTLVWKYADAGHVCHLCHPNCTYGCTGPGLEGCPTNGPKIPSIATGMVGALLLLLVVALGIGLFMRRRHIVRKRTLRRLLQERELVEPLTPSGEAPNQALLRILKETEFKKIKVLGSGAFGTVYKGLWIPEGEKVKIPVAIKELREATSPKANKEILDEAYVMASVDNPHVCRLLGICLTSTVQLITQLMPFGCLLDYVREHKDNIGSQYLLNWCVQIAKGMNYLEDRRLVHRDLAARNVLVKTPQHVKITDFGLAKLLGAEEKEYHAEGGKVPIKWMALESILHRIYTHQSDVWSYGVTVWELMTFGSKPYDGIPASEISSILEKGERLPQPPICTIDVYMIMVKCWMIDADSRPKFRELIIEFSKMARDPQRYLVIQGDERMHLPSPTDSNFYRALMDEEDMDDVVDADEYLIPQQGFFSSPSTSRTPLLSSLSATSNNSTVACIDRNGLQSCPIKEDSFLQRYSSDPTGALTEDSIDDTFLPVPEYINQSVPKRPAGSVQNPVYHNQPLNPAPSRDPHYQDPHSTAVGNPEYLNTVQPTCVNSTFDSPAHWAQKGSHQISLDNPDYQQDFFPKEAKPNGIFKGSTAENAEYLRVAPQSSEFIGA
Method in brief: as §1

Src = molecular target: T8, Src (Homo sapiens, UniProt P12931); test: Kinase inhibition assay (33P transfer), Src; conditions: Table 6, Src-1 kinase inhibition class
T8 construct: Kinases are expressed as either kinase domains or full length constructs; made in house
Method in brief: as §1

Fyn = molecular target: T9, Fyn (Homo sapiens, UniProt P06241); test: Kinase inhibition assay (33P transfer), Fyn; conditions: read-out: Fyn-1
T9 construct: Kinases are expressed as either kinase domains or full length constructs; made in house
T9 sequence (P06241 whole entry, species assumed, the tested form may be a part): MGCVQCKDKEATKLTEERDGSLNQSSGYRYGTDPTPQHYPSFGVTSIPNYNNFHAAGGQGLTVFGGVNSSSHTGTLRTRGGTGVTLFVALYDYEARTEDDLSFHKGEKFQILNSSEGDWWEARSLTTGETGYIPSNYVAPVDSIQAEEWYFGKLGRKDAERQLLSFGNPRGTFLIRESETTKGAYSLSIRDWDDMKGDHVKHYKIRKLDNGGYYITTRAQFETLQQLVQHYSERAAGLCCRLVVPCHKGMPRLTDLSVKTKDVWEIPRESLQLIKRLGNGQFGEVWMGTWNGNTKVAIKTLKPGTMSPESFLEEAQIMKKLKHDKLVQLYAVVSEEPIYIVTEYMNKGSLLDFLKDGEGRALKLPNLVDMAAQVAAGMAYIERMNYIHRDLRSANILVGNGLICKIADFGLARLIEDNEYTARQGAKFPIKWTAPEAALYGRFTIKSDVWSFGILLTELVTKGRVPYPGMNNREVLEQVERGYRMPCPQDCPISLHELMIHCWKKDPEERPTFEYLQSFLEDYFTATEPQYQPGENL
Method in brief: as §1

AKT = molecular target: T10, AKT (Homo sapiens, UniProt Q9Y243); test: Kinase inhibition assay (33P transfer), AKT; conditions: Table 2, kinase inhibition class; read-out: AKT3-1
T10 construct: Kinases are expressed as either kinase domains or full length constructs; made in house
Method in brief: as §2

FGFR1 = molecular target: T11, FGFR1 (Homo sapiens, UniProt P11362); test: Kinase inhibition assay (33P transfer), FGFR1; conditions: read-out: FGFR1-1
T11 construct: Kinases are expressed as either kinase domains or full length constructs; made in house
T11 sequence (P11362 22-822, species assumed): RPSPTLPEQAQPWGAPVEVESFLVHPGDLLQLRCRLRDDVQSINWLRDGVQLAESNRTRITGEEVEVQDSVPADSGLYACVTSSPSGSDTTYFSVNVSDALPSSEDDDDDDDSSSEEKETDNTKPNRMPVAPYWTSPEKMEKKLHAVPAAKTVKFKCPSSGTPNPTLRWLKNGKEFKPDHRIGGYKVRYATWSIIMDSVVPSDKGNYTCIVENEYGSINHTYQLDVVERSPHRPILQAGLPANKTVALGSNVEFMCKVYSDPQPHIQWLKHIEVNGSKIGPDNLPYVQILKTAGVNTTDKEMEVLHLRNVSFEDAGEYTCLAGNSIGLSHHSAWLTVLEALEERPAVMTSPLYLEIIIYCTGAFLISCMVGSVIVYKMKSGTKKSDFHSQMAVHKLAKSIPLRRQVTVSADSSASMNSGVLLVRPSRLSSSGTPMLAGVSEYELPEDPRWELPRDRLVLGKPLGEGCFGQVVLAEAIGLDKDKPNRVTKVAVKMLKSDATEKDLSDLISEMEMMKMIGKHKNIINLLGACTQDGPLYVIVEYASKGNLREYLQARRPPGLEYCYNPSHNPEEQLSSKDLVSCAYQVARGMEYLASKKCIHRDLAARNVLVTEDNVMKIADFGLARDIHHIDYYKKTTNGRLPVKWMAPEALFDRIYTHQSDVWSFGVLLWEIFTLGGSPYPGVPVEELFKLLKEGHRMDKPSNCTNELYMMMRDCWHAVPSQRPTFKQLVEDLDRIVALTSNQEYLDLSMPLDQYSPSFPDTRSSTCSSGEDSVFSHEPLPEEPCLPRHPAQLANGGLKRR

Flt-1 = molecular target: T12, Flt-1 (Homo sapiens, UniProt P17948); test: Kinase inhibition assay (33P transfer), Flt-1
T12 construct: Kinases are expressed as either kinase domains or full length constructs; made in house
T12 sequence (P17948 27-1338, species assumed): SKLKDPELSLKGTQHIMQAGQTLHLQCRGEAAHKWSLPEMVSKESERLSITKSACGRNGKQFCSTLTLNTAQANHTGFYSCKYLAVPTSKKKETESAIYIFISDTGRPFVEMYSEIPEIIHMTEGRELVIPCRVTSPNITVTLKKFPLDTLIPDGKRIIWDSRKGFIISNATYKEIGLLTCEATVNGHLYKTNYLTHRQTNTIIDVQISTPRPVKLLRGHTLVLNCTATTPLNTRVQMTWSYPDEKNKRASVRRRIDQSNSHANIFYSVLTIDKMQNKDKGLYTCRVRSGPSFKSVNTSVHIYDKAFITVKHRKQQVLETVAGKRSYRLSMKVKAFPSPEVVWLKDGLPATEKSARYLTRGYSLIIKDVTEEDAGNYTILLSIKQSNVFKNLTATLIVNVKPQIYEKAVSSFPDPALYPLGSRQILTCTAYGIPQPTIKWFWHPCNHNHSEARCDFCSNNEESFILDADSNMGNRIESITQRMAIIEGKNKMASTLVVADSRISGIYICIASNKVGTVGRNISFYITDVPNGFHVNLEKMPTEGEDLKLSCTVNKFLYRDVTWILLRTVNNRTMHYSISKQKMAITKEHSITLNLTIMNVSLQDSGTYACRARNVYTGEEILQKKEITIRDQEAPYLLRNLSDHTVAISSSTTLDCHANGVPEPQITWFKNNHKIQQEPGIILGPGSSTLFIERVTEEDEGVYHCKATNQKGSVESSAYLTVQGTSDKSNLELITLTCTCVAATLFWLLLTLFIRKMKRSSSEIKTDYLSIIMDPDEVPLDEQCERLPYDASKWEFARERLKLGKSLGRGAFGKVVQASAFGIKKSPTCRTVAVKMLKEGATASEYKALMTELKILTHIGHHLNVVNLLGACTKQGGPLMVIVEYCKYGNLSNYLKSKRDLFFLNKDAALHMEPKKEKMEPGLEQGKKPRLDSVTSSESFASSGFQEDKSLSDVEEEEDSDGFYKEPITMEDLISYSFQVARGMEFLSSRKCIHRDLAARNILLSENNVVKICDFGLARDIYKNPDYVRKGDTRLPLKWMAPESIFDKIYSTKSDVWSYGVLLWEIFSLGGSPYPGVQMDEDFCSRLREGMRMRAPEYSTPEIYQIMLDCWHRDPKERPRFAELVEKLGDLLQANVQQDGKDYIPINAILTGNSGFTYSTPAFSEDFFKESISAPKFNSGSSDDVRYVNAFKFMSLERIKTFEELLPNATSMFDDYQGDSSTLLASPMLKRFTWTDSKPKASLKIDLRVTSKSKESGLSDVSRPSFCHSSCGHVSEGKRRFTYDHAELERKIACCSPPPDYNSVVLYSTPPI
Method in brief: as §1

Tek = molecular target: T13, Tek (Homo sapiens, UniProt Q02763); test: Kinase inhibition assay (33P transfer), Tek; conditions: read-out: Tek-1
T13 construct: Kinases are expressed as either kinase domains or full length constructs; made in house
Method in brief: as §1

IGFR-1 = molecular target: T14, IGFR-1 (Homo sapiens, UniProt P08069); test: Kinase inhibition assay, IGFR-1 (Table 2); conditions: Table 2, kinase inhibition class
T14 construct: Kinases are expressed as either kinase domains or full length constructs; made in house

Lyn = molecular target: T15, Lyn (Homo sapiens, UniProt P07948); test: Kinase inhibition assay (33P transfer), Lyn; conditions: Table 6, Lyn-1 kinase inhibition class
T15 construct: Kinases are expressed as either kinase domains or full length constructs; made in house
Method in brief: as §1

Zap-70 = molecular target: T16, Zap-70 (Homo sapiens, UniProt P43403); test: Kinase inhibition assay (33P transfer), Zap-70; conditions: read-out: Zap-1
T16 construct: Kinases are expressed as either kinase domains or full length constructs; made in house
T16 sequence (P43403 1-619): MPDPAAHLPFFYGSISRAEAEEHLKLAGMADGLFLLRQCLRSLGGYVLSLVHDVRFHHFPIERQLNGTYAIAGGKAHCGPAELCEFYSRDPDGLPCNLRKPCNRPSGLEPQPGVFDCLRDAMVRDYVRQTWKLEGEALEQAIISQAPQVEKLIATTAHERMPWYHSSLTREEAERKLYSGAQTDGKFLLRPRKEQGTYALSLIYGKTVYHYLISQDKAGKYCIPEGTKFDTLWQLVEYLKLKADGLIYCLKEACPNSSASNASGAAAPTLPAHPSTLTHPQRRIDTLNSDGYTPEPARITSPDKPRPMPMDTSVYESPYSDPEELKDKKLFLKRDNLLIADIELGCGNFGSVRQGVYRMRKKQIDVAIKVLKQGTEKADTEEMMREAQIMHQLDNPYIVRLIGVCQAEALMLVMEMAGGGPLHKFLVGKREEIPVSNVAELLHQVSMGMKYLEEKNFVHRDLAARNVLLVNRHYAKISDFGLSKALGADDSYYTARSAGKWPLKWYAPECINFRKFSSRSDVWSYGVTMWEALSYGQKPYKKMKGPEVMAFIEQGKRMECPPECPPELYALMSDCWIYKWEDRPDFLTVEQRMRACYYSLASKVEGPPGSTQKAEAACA
Method in brief: as §2

ErbB4 = molecular target: T17, ErbB4 (Homo sapiens, UniProt Q15303); test: Kinase inhibition assay (33P transfer), ErbB4; conditions: read-out: ErbB4-1
T17 construct: Kinases are expressed as either kinase domains or full length constructs; made in house
T17 sequence (Q15303 26-1308, species assumed): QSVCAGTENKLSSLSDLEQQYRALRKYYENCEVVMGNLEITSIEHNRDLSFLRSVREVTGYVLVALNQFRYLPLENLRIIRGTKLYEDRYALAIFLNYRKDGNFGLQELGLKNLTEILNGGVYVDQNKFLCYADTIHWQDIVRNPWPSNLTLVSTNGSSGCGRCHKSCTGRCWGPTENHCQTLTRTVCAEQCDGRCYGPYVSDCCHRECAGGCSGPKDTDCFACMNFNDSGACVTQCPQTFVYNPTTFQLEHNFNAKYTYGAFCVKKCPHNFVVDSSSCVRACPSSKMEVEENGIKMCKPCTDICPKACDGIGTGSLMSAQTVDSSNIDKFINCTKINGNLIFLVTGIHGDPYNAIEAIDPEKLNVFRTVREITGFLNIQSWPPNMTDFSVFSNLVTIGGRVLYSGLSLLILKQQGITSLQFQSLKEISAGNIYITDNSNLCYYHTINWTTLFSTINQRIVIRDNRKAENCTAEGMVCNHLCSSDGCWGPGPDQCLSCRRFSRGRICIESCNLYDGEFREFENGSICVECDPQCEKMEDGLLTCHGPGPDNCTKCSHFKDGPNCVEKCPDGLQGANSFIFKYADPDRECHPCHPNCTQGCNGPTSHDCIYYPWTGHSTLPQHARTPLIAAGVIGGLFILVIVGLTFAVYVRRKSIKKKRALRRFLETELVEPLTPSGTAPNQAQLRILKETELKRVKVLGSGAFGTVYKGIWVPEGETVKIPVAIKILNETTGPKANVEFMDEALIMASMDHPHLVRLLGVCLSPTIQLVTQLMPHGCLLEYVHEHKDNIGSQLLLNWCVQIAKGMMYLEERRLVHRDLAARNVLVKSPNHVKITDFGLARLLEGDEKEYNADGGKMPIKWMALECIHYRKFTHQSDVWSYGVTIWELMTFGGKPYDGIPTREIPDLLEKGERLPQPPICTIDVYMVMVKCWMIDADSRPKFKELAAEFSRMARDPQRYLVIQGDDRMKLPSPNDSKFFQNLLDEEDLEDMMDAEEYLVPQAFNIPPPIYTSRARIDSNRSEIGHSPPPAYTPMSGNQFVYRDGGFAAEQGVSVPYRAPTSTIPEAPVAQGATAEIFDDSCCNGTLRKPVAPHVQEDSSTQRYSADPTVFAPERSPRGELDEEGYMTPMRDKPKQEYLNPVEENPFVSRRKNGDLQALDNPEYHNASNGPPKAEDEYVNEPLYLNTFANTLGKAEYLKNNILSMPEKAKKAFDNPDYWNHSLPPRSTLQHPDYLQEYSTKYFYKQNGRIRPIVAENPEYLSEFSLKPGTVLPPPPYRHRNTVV

PDGFRB = molecular target: T18, PDGFRB (Homo sapiens, UniProt P09619); test: Kinase inhibition assay (33P transfer), PDGFRB; conditions: read-out: PDGFRB-1
T18 construct: Kinases are expressed as either kinase domains or full length constructs; made in house

Kdr = molecular target: T19, Kdr (Homo sapiens, UniProt P35968); test: Kinase inhibition assay (33P transfer), Kdr; conditions: read-out: KDR-1
T19 construct: Kinases are expressed as either kinase domains or full length constructs; made in house
Method in brief: as §2

IC50 (Hck-1) [µM] | IC50 (ErbB2) [µM] | IC50 (Ret-1) [µM] | IC50 (Lck) [µM] | IC50 (c-Met) [µM] | IC50 (Itk) [µM] | IC50 (EGFR) [µM] | IC50 (Src) [µM] | IC50 (Fyn) [µM] | IC50 (AKT) [µM] | IC50 (FGFR1) [µM] | IC50 (Flt-1) [µM] | IC50 (Tek) [µM] | IC50 (IGFR-1) [µM] | IC50 (Lyn) [µM] | IC50 (Zap-70) [µM] | IC50 (ErbB4) [µM] | IC50 (PDGFRB) [µM] | IC50 (Kdr) [µM] | SMILES
> 11.4 | > 11.4 | < 1.01 | < 1.01 | > 11.4 | 6.05 to 8.83 | > 11.4 | 1.01 to 6.05 | 1.01 to 6.05 | > 11.4 | > 11.4 | > 11.4 | > 11.4 | > 11.4 | < 1.01 | > 11.4 | > 11.4 | < 1.01 | < 1.01 | COc1cc(Nc2ncnc(-c3cccnc3NC(C)C)n2)cc(OC)c1OC [Compound 1089]
> 8.76 | > 8.76 | 0.779 to 4.67 | > 8.76 | > 8.76 | > 8.76 | > 8.76 | > 8.76 | > 8.76 | > 8.76 | 0.779 to 4.67 | 4.67 to 6.82 | > 8.76 | > 8.76 | > 8.76 | > 8.76 | > 8.76 | > 8.76 | < 0.779 | COc1ccc(CNc2nc3ccccc3n2-c2ncnc(Nc3cc(OC)c(OC)c(OC)c3)n2)cc1 [Compound 1037]
0.796 to 4.78 | < 0.796 | 0.796 to 4.78 | < 0.796 | > 8.95 | 0.796 to 4.78 | < 0.796 | < 0.796 | 0.796 to 4.78 | > 8.95 | 0.796 to 4.78 | 4.78 to 6.96 | 0.796 to 4.78 | 0.796 to 4.78 | < 0.796 | > 8.95 | 0.796 to 4.78 | < 0.796 | < 0.796 | COc1cc(Nc2ncnc(Nc3cccc4ccccc34)n2)cc(OC)c1OCCN1CCOCC1 [Compound 1041]
5.97 to 8.71 | 0.995 to 5.97 | < 0.995 | < 0.995 | < 0.995 | > 11.2 | < 0.995 | < 0.995 | 0.995 to 5.97 | > 11.2 | 0.995 to 5.97 | 0.995 to 5.97 | 0.995 to 5.97 | 0.995 to 5.97 | 0.995 to 5.97 | > 11.2 | 0.995 to 5.97 | < 0.995 | < 0.995 | COc1cc(Nc2ncnc(N(C)c3ccc(Cl)cc3)n2)cc(OC)c1OC [Compound 616]
> 9.75 | 0.867 to 5.2 | 7.58 to 9.75 | > 9.75 | > 9.75 | > 9.75 | < 0.867 | > 9.75 | 5.2 to 7.58 | > 9.75 | > 9.75 | > 9.75 | 7.58 to 9.75 | > 9.75 | 0.867 to 5.2 | > 9.75 | > 9.75 | > 9.75 | 7.58 to 9.75 | COc1cc(Nc2ncnc(N3CCCc4ccc(C(F)(F)F)cc43)n2)cc(OC)c1OC [Compound 518]

Reference: patent US7074789B2, “Kinase inhibitors” (Amgen Inc., priority 1999, dated 2006)
